{"source": "patent US20140155445A1", "about": "“Compounds and Methods for Treating Cancer and Diseases of the Central Nervous System” (Osta Biotechnologies Inc., priority 2007, published 2014)", "key": {"[1]": {"test_system": "HCT-116 colorectal carcinoma", "assay": "Colorectal carcinoma model HCT-116 in SCID mice", "assay_type": "in vivo, human", "excerpt": "(§1) Control groups received the vehicle alone."}, "[2]": {"test_system": "SKMEL 28-V+ cells (human melanoma)", "assay": "Melanoma model SKMEL-V+ in SCID mice (combination study)", "assay_type": "in vivo", "settings": "QC-56 60 mg/kg/ip; Dacarbazine 55 mg/kg", "experimental": "SKMEL 28-V+ cells (human melanoma). These cells were originally from the ATCC and then engineered to overexpress VEGF. […] The cells were tested to be free of mycoplasma.\nas §1"}, "[3]": {"test_system": "SKMEL-V+ cells", "assay": "Melanoma efficacy study of QC-199, SKMEL-V+ cells s.c. in Scid mice", "assay_type": "in vivo, human", "settings": "10 mg/kg i.v. injection, 2 cycles, d1, 3, 5 per cycle", "experimental": "BD PharMingen, San Diego, Calif.). Cryostat sections were used for CD31 staining. […] Sections were rehydrated in PBS and then blocked with 5% normal goat serum for 1 h. The sections were then incubated overnight at 4° C. with CD31 antibody diluted 1:25 in 3% BSA-PBS. […] Sections were counterstained with Harris' hematoxylin and mounted. Slides were analyzed by conventional light microscopy and photographed using color slides (Eastman Kodak, Rochester, N.Y.). Balb/c Scid mice, 6 week-old, were obtained from Charles River Laboratories, St. Zotique, PQ, Canada. The mice weighed 18-22 g. The experiments were approved by the Animal Care Committee, McGill University, Montreal. The animals were housed in individual cages (4 per cage) and were fed standard rodent chow and water ad libitum. […] When the tumors become palpable (size of a rice), mice weights were measured with a digital balance accurate to 0.05 g. […] For the infusion, mice were anesthetized using isoflurane-based system ([…] COMPACT NRB, 3975-0800-000). For the infusion, a mini pump (NE-1800, New Era Pump Systems, Inc.) was used to infuse the compound via the tail vein during a 2 h period. […] At experiment termination, mice were anesthetized with isoflurane and sacrificed by cervical dislocation. Tumors were dissected and tumor weights were measured using a digital balance."}, "[4]": {"test_system": "hHO-1 transfected primary rat astroglial cultures", "assay": "Protein carbonyl ELISA in hHO-1-transfected primary rat astroglia (whole-cell and mitochondrial compartments)", "assay_type": "cell-based", "experimental": "Cells were grown in Ham's F12 and high glucose DMEM (50:50 v/v) supplemented with 10 mM HEPES, 5% heat-inactivated horse serum, 5% heat-inactivated fetal bovine serum, and penicillin-streptomycin (50 U/mL and 50 μg/mL, respectively).\n(§2) Upon reaching >90% confluence, 1×10^6 cells were transiently transfected with 4.0 μg of plasmid DNA-Lipofectamine 2000 complex using Lipofectamine 2000 method according to manufacturer instructions (Invitrogen). […] 12 μg of plasmid DNA and 16 μl of Lipofectamine 2000 reagent were diluted in 1.5 mL opti-MEM I reduced serum medium and incubated for 5 minutes at room temperature with gentle mixing. The two solutions were combined, incubated at room temperature for 20 minutes to promote formation of DNA-lipid complexes and administered to the cells. 2 mL opti-MEM I reduced serum medium was added to the flasks to ensure coverage of the monolayer by the transfection mixture. Following incubation for 6 hours at 37° C., the transfection mixture was replaced with 10 mL of complete media without antibiotics.\nThe cells were sonicated (Sonics & Materials, Danbury, Conn.) at a power level of 50 for 3×20 s in a cooled water bath. […] Whole-cell and mitochondrial preparations were assayed for protein carbonyls as described below.\nProtein carbonyls were reacted with 2,4-dinitrophenylhydrazine (DNP) and the hydrazone adducts were detected with anti-DNP antisera. Quantification was achieved by comparison with oxidized BSA standards. Oxidized (carbonylated) BSA was prepared by reacting natural BSA (at 50 mg/mL in PBS) with hypochlorous acid (5 mM) for 1 h at 37° C., followed by overnight dialysis against PBS at 4° C. […] The pellet was resuspended in 2 mL of same buffer, sonicated on ice 2×15 s at 20 W and centrifuged for 20 min at 4° C. at 1,303×g. Protein concentration of supernatant was measured with the RC DC protein assay based on the Lowry protocol (Bio-Rad Laboratories, Hercules, Calif.). All samples were adjusted to 4.0 mg protein/mL. […] Five microliters aliquots of each reaction mixture were mixed with 1 mL PBS and 200 μL replicates were added per well to 96-well immunoplates and incubated overnight at 4° C. After washing with PBS, nonspecific binding sites were blocked with 0.1% Tween 20 in PBS. […] A 6-point standard curve of reduced and oxidized BSA was generated for each plate analyzed. Specific absorbance for each sample was calculated by subtracting basal absorbance of the DNP reagent from the total absorbance."}, "[5]": {"molecular_target": "T1, human HO-1 (hHO-1) in transfected astroglia (Homo sapiens, UniProt P09601)", "T1 construct": "containing the entire protein-coding region (866 bp) of the human HO-1 gene; expressed in transfected cells; host or cells: primary rat astrocytes, transient transfection with pcDNA3.1/Zeo.CMV.Flag.hHO-1 (Lipofectamine 2000)", "T1 sequence (P09601 1-288)": "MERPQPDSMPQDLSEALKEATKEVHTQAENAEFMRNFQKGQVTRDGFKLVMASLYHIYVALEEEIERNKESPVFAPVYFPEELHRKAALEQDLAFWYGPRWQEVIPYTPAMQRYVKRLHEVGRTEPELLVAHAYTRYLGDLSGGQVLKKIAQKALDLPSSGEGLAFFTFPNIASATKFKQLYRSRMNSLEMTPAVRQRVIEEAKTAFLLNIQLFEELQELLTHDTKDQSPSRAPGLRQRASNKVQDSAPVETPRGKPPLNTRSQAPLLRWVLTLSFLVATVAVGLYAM", "assay": "HO enzyme activity (bilirubin formation) in hHO-1-transfected astrocytes", "assay_type": "cell-based", "experimental": "as §2\nA young adult male rat was gas-anesthetized, laid on ice and systemically perfused with ice-cold 0.9% NaCl to get rid of all blood from liver. The liver was then excised on ice and transferred to a cold room (4° C.) and cut into small pieces in cold 0.9% NaCl (3 mL per gram of tissue) with surgical scissors in and placed in a 50 mL tube. The tissue chunks were homogenized with an electric tissue homogenizer and centrifuged at 150×g for […] at 4° C. Similarly, all of the following steps, including centrifugations, were performed at 4° C. The supernatant was centrifuged at 18,000×g for 10 min and further at 30,000×g for 30 min. A saturated solution of ammonium sulfate was added to the 30,000×g supernatant to attain 40% saturation and placed on ice for 10 min. The mixture was centrifuged at 10,000×g for 10 min and supernatant was recovered and transferred to a fresh tube. Sixty percent of saturation was achieved by adding saturation solution of ammonium sulfate to the supernatant. The mixed solution was centrifuged again at 10,000×g for 10 min and […]. […] The dialysate was centrifuged at 10,000 g for 10 min and pellet was discarded. The protein concentration of the supernatant was measured with Bradford reagent (BioRad laboratories, Hercules, Calif.) and adjusted to 10 mg/mL with 0.01 M KPO4, pH7.4. The supernatant was aliquoted and stored at −20° C. ready for use.\nCytosol extracts were prepared for HO activity measurement by the method of Ryter (Ryter, Kvam, Tyrrell 2000). Astroglial monolayers were washed with ice-cold PBS and scraped in ice-cold PBS-EDTA (1 mM, pH 8.0) containing 50 μg/mL protease inhibitor (AEBSF), centrifuged at 150×g at 4° C. and resuspended in 20 mM Tris-HCl (pH 7.4) and 0.25 M sucrose containing protease inhibitors. Cell suspensions were sonicated on ice 2×15 s at 20 W and centrifuged for 20 min at 4° C. at 15,000×g. Protein concentration of supernatant was measured with Bradford method. […] Reaction mixtures were incubated at 37° C. in the dark for 60 min with hard vortex every 10 min. […] HO activity was calculated as nanomoles bilirubin per milligram protein per min, assuming an extinction coefficient of 40/mM/cm in chloroform (see FIG. 8).\nCells were rinsed twice with cold PBS (pH 7.4) and scraped in iced lysis buffer consisting of 1% Nonidet P-40, 50 mM Tris.HCl (pH 7.4), 30 mM NaCl, 25 mM β-glycerophosphate, 10 mM EDTA, 10 mM EGTA, 1 mM MgCl2, and protease inhibitors (10 mM sodium fluoride, 50 μg/mL AEBBSF, 5 μg/mL leupeptin, 5 μg/mL pepstatin, 5 μg/mL aprotinin). […] Protein contents were determined using the Bradford method. […]"}, "[6]": {"test_system": "OVCAR-3 (human ovarian carcinoma)", "assay": "Ovarian carcinoma model OVCAR-3 in SCID mice", "assay_type": "in vivo", "settings": "QC-56 60 mg/kg/ip; CDDP 3 mg/kg", "excerpt": "• Species and strain: […] OVCAR-3 (human ovarian carcinoma). […] Control groups received the vehicle alone."}, "[7]": {"test_system": "B16-BL6 cells (mouse melanoma)", "assay": "B16-BL6 melanoma lung metastasis model", "assay_type": "in vivo", "settings": "QC-56 60 mg/kg i.p.; vehicle group 101 nodules", "experimental": "• Species and strain: […] B16-BL6 cells (mouse melanoma). B16-BL6 metastatic variant was derived from B16-F10. This cell variant was obtained from Dr. Linda D. Williams, Dept. of Cancer Biology, MD Anderson Cancer Center, Texas, USA. […] Cells were maintained at 37° C. in a humidified atmosphere (5% CO2, 95% air). […] Control groups received the vehicle alone."}}, "note": "“Also recorded” adds a separate entry of the source.", "data": [{"smiles": "O=c1[nH]cc(F)c(=O)[nH]1", "note": "[5-FU, reference compound]", "values": [{"measurement": "mouse mortality", "setting": "[1]; 60 mg/kg, HCT-116 model (FIG. 25)", "result": "induced mortality"}, {"measurement": "reduction of tumor volume at the time of sacrifice compared to control", "setting": "[1]; QC-56 60 mg/kg/ip, 5-FU 60 mg/kg/ip reduced to 40 mg/kg", "result": "similar"}]}, {"smiles": "CN(C)/N=N/c1[nH]cnc1C(N)=O", "note": "[Dacarbazine, reference compound]", "values": [{"measurement": "inhibition of tumor growth compared to vehicle alone", "setting": "[2]", "result": "approximately 24%"}, {"measurement": "tumor size on the day of sacrifice", "setting": "[2]", "result": "1.30±0.23", "unit": "cm^3"}, {"measurement": "reduction of tumor volume vs vehicle", "setting": "[3]", "result": 21, "unit": "%"}]}, {"smiles": "Cl.FC[C@@H]1CO[C@@](CCc2ccc(Cl)cc2)(Cn2ccnc2)O1", "note": "[QC-47, (2R,4S)-2-[2-(4-Chlorophenyl)ethyl]-2-[(1H-imidazol-1-yl)methyl]-4-(fluoromethyl)-1,3-dioxolane hydrochloride]", "values": [{"measurement": "oxidative protein damage (protein carbonyls) accruing from hHO-1 transfection", "setting": "[4]; 6.5 μM", "result": "significantly attenuated"}, {"measurement": "dose dependence of attenuation of oxidative protein damage", "setting": "[4]; transiently transfected rat astroglia, hydrochloride", "result": "significant dose dependant attenuations; also recorded: in a dose dependent manner significantly decreased"}, {"measurement": "HO activity in HO-1-transfected astroglia", "setting": "[5]; 6.5 μM, 18 h, hHO-1-transfected cells, hydrochloride", "result": "suppressed to levels akin to those of non-transfected and sham-transfected controls; also recorded: significantly attenuated; also recorded: significantly decreased"}, {"measurement": "expression level of flag-tagged HO-1 protein", "setting": "[5]; 6.5 μM, transiently transfected cells", "result": "without affecting the expression level of flag-tagged HO-1 protein"}, {"measurement": "IC50", "setting": "[5]; concentration of QC-47 used on HO-1-transfected astroglia, stated as IC50", "result": 6.5, "unit": "µM"}]}, {"smiles": "N.N.[Cl][Pt][Cl]", "note": "[cisplatin, reference compound]", "values": [{"measurement": "tumor size on the day of sacrifice", "setting": "[6]", "result": "0.63±0.06", "unit": "cm^3"}, {"measurement": "macroscopic nodules in the lungs (average)", "setting": "[7]", "result": 60}]}]}
